Drawing on PMC11451537, “P2X7 receptors exhibit at least three modes of allosteric antagonism” (Science Advances, 2024), this text covers IC50 for one molecule.

For experiment [1], the target named is T1, hP2X3 (Homo sapiens, UniProt P56373).
T1 construct: The hP2X1-WT, hP2X2-WT, hP2X3-WT, hP2X4-WT, and hP2X7-WT constructs used for electrophysiology are similarly unmodified full-length, wild-type receptor constructs; expressed in transfected cells; host or cells: Xenopus laevis oocytes injected with mRNA made from pcDNA3.1x
T1 sequence (P56373 1-397): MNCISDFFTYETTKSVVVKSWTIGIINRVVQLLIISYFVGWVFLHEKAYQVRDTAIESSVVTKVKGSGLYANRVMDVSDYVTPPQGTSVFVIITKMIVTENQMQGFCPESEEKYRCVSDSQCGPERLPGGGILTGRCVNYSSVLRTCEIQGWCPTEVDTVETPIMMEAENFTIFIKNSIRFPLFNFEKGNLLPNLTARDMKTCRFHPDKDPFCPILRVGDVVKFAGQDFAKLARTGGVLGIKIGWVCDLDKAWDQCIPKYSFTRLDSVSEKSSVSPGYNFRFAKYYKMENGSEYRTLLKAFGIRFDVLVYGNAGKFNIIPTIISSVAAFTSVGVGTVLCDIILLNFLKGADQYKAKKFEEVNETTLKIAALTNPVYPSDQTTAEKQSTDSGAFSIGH
In words: TEVC inhibition dose-response (IC50), hP2X3 in Xenopus laevis oocytes. It is filed as cell-based. The following applies: 1 μM ATP, mean ± SD, triplicate. From the text:
(§1) To evaluate the inhibitory response of an antagonist for a dilution series, an initial excitatory signal was evoked at a subtype-specific concentration of ATP. Next, the antagonist was applied at a test concentration for 60 s and then coapplied at the same test concentration of the antagonist with the identical subtype-specific concentration of ATP. The antagonized signal was then normalized against the preceding excitatory signal evoked by ATP for each individual oocyte tested. The pre- and post-antagonist signals were evoked by 10 μM ATP for hP2X1, 10 μM ATP for hP2X2, 1 μM ATP for hP2X3, 50 μM ATP for hP2X4, and 100 μM ATP for P2X7. For the K297V mutation in rP2X7, pre- and post-antagonist signals were evoked by 300 μM ATP. Each dataset was then fit to a nonlinear regression named “[inhibitor] vs. response – Variable slope (four parameters)” in GraphPad Prism 9 to produce a sigmoidal curve and afford an IC50 value. Each singular condition was used to generate an average which is reported plus or minus its SD between three discrete trials.

Experiment [2] concerns the target T2, hP2X7 (Homo sapiens, UniProt Q99572).
T2 sequence (Q99572 1-595): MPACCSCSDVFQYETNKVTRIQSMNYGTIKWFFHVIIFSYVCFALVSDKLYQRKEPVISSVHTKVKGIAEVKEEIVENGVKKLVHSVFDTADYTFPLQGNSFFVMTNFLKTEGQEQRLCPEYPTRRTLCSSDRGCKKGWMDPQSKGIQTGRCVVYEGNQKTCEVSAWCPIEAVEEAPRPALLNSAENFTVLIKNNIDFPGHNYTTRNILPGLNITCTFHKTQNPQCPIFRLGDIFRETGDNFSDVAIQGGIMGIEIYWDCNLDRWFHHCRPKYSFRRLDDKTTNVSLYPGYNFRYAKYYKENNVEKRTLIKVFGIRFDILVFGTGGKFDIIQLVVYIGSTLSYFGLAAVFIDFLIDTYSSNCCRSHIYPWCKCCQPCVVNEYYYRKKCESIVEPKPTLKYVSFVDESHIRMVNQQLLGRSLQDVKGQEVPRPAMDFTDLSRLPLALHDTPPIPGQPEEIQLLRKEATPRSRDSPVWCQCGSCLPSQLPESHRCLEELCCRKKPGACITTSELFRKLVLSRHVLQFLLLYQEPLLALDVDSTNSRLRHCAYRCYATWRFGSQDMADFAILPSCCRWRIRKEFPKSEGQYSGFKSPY
Put plainly: TEVC inhibition dose-response (IC50), hP2X7 in Xenopus laevis oocytes. The following applies: 100 μM ATP, mean ± SD, triplicate. Set-up: hP2X4-WT, and hP2X7-WT constructs used for electrophysiology are similarly unmodified full-length, wild-type receptor constructs; expressed in transfected cells; host or cells: Xenopus laevis oocytes injected with mRNA made from pcDNA3.1x. Type of experiment: cell-based.
Source text: as §1

Each structure is given as a SMILES string.

The term IC50 denotes the midpoint of a concentration-inhibition curve. Higher therefore signals lower potency. For `O=S(=O)(O)c1ccc(N=C2C=CC(=C(c3ccc(Nc4ccc(S(=O)(=O)O)cc4)cc3)c3ccc(Nc4ccc(S(=O)(=O)O)cc4)cc3)C=C2)cc1` [methyl blue], the values for the IC50 in experiment [1] and in experiment [2] were 4 ± 1 µM and 4 ± 2 µM, respectively.
